pIC50: −log10 of the molar value. ≈ marks a conversion by molar mass, not a printed value.
Experiments:
Vibrio mimicus = experiment: Antimicrobial activity against Vibrio mimicus after 18 to 20 hr by agar dilution method; assay type: functional
[1] = molecular target: Human immunodeficiency virus type 1 reverse transcriptase (Human immunodeficiency virus 1, UniProt Q72547); experiment: Inhibition of Human immunodeficiency virus 1 RT using Poly(vC)oligo (dG) as template/primer after 30 min
[2] = test system: Human immunodeficiency virus 1; experiment: Antiviral activity against Human immunodeficiency virus 1 IIIB infected MT4 cells assessed as protection against viral infection after 5 days by MTT assay; assay type: functional; design: concentration or dose not given beside the values
Vibrio parahaemolyticus = experiment: Antimicrobial activity against Vibrio parahaemolyticus after 18 to 20 hr by agar dilution method; assay type: functional
Salmonella typhi = experiment: Antimicrobial activity against Salmonella enterica subsp. enterica serovar Typhi after 18 to 20 hr by agar dilution method; assay type: functional
Vibrio cholerae [3] = experiment: Antimicrobial activity against Vibrio cholerae 0139 after 18 to 20 hr by agar dilution method; assay type: functional; settings: 139
Morganella morganii = experiment: Antimicrobial activity against Morganella morganii after 18 to 20 hr by agar dilution method; assay type: functional
Priestia megaterium = experiment: Antimicrobial activity against Bacillus megaterium after 18 to 20 hr by agar dilution method; assay type: functional
[4] = Cytotoxicity against Homo sapiens (human) MT4 cells after 5 days by MTT assay; assay type: cell-based
Vibrio cholerae [5] = experiment: Antimicrobial activity against Vibrio cholerae 01 after 18 to 20 hr by agar dilution method; assay type: functional; settings: 1
Salmonella paratyphi = experiment: Antimicrobial activity against Salmonella enterica subsp. enterica serovar Paratyphi A after 18 to 20 hr by agar dilution method; assay type: functional
Vibrio fluvialis = experiment: Antimicrobial activity against Vibrio fluvialis after 18 to 20 hr by agar dilution method; assay type: functional
Shigella sonnei = experiment: Antimicrobial activity against Shigella sonnei after 18 to 20 hr by agar dilution method; assay type: functional
Hepatitis C virus = experiment: Antiviral activity against Hepatitis C virus BM4-5 infected in Huh7 cells assessed as inhibition of viral RNA replication by phosphor screening method; assay type: functional, Hepacivirus hominis, Huh-7
[6] = test system: Mycobacterium tuberculosis; experiment: Antimycobacterial activity against Mycobacterium tuberculosis H37Rv ATCC 27294 at 6.25 ug/ml by MABA; assay type: functional
[7] = Selectivity index, ratio of CC50 for human MT4 cells to EC50 for HIV1 3B infected in MT4 cells; assay type: toxicity, cell-based; settings: read-out: Ratio CC50/EC50
Escherichia coli [8] = experiment: Antimicrobial activity against Escherichia coli NCTC 10418 after 18 to 20 hr by agar dilution method; assay type: functional
[9] = test system: Human immunodeficiency virus 1; experiment: Antiviral activity against Human immunodeficiency virus 1 IIIB infected CEM cells assessed as inhibition of virus-induced cytopathicity after 6 days by XTT assay; assay type: functional, organism-based; settings: CCRF-CEM, 144 h
[10] = Cytotoxicity against Homo sapiens (human) CEM cells after 5 days by MTT assay; assay type: cell-based; settings: CEM cells (CCRF-CEM)
[11] = Cytotoxicity against Homo sapiens (human) HuH7 cells assessed as cell growth at 50 ug/ml after 3 days by Neutral red assay; assay type: cell-based, Huh-7; settings: read-out: Activity
Plesiomonas = experiment: Antimicrobial activity against Plesiomonas after 18 to 20 hr by agar dilution method; assay type: functional
Proteus vulgaris = experiment: Antimicrobial activity against Proteus vulgaris after 18 to 20 hr by agar dilution method; assay type: functional
Salmonella typhimurium = experiment: Antimicrobial activity against Salmonella enterica subsp. enterica serovar Typhimurium after 18 to 20 hr by agar dilution method; assay type: functional
Vero = experiment: Cytotoxicity against Chlorocebus aethiops (African green monkey) Vero cells up to 62.5 ug/ml; assay type: cell-based; settings: chlorocebus sabaeus
Salmonella enteritidis = experiment: Antimicrobial activity against Salmonella enterica subsp. enterica serovar Enteritidis after 18 to 20 hr by agar dilution method; assay type: functional
[12] = test system: Human immunodeficiency virus 1; experiment: Antiviral activity against Human immunodeficiency virus 1 IIIB infected CEM cells assessed as protection against viral infection after 6 days by XTT assay; assay type: functional, CCRF-CEM; design: concentration or dose not given beside the values
Escherichia coli [13] = experiment: Ratio of ciproflaxacin ED50 to compound ED50 for Escherichia coli NCTC 10418 infected in po dosed CF mouse; assay type: functional
[14] = test system: Mycobacterium tuberculosis; experiment: Antimycobacterial activity against Mycobacterium tuberculosis H37Rv ATCC 27294; assay type: functional
Klebsiella pneumoniae [15] = experiment: Antimicrobial activity against Klebsiella pneumoniae after 18 to 20 hr by agar dilution method; assay type: functional
Pseudomonas aeruginosa = experiment: Antimicrobial activity against Pseudomonas aeruginosa after 18 to 20 hr by agar dilution method; assay type: functional
Staphylococcus aureus = experiment: Antimicrobial activity against Staphylococcus aureus after 18 to 20 hr by agar dilution method; assay type: functional
Shigella boydii = experiment: Antimicrobial activity against Shigella boydii after 18 to 20 hr by agar dilution method; assay type: functional
[16] = test system: Human immunodeficiency virus 1; experiment: Antiviral activity against Human immunodeficiency virus 1 IIIB infected MT4 cells assessed as inhibition of virus-induced cytopathicity after 5 days by MTT assay; assay type: functional, organism-based; settings: MT4, 120 h
Edwardsiella tarda = experiment: Antimicrobial activity against Edwardsiella tarda after 18 to 20 hr by agar dilution method; assay type: functional
Klebsiella pneumoniae [17] = experiment: Antimicrobial activity against Klebsiella pneumoniae subsp. ozaenae after 18 to 20 hr by agar dilution method; assay type: functional
Enterobacter = experiment: Antimicrobial activity against Enterobacter after 18 to 20 hr by agar dilution method; assay type: functional
Citrobacter freundii = experiment: Antimicrobial activity against Citrobacter freundii after 18 to 20 hr by agar dilution method; assay type: functional
Escherichia coli [18] = experiment: Antibacterial activity against Escherichia coli NCTC 10418 infected in po dosed CF mouse compound administered 1 hr prior and 4 hr post infection; assay type: functional; settings: NCTC 10418, po
Proteus mirabilis = experiment: Antimicrobial activity against Proteus mirabilis after 18 to 20 hr by agar dilution method; assay type: functional

With `COc1cc(Cc2cnc(/N=C3\C(=O)N(CN4CCN(c5cc6c(cc5F)c(=O)c(C(=O)O)cn6C5CC5)CC4)c4ccc(Cl)cc43)nc2N)cc(OC)c1OC` the MIC (Vibrio mimicus) was 0.0095 µg/mL (≈ 0.0119 µM), the pIC50 [1] was 4.74 and the Activity [2] was 101%. The MIC (Vibrio parahaemolyticus) was 0.0763 µg/mL (≈ 0.0957 µM), the MIC (Salmonella typhi) was 0.305 µg/mL (≈ 0.383 µM) and the MIC (Vibrio cholerae [3]) was 0.019 µg/mL (≈ 0.0238 µM). For the same compound, the MIC (Morganella morganii) was 1.22 µg/mL (≈ 1.53 µM), the MIC (Priestia megaterium) was 0.019 µg/mL (≈ 0.0238 µM) and the CC50 at 120 h [4] was 187 µg/mL (≈ 234 µM). For the same compound, the MIC (Vibrio cholerae [5]) was 4.88 µg/mL (≈ 6.12 µM), the MIC (Salmonella paratyphi) was 0.153 µg/mL (≈ 0.191 µM) and the MIC (Vibrio fluvialis) was 0.0095 µg/mL (≈ 0.0119 µM). The MIC (Shigella sonnei) was 0.31 µg/mL (≈ 0.389 µM), the “inhibition (INH)” value (Hepatitis C virus) was 86% and the inhibition at 6.25 µg/mL [6] was 100%. It also gave a selectivity ratio [7] greater than 19, an MIC (Escherichia coli [8]) of 0.0381 µg/mL (≈ 0.0478 µM) and an EC50 [9] greater than 200 µg/mL. The CC50 at 120 h [10] was greater than 200 µg/mL, the viability at 72 h, 50 ug/ml [11] was 109% and the MIC (Plesiomonas) was 1.22 µg/mL (≈ 1.53 µM). For the same compound, the MIC (Proteus vulgaris) was 0.0095 µg/mL (≈ 0.0119 µM), the MIC (Salmonella typhimurium) was 0.0047 µg/mL (≈ 0.0059 µM) and the Activity (Vero) was “Non-toxic”. For the same compound, the MIC (Salmonella enteritidis) was 0.61 µg/mL (≈ 0.766 µM), the Activity [12] was 33.3% and the “Ratio ED50” value (Escherichia coli [13]) was 2. The MIC [14] was 3.13 µg/mL (≈ 3.93 µM), the MIC (Klebsiella pneumoniae [15]) was 0.31 µg/mL (≈ 0.389 µM) and the MIC (Pseudomonas aeruginosa) was 1.22 µg/mL (≈ 1.53 µM). The MIC (Staphylococcus aureus) was 4.88 µg/mL (≈ 6.12 µM), the MIC (Shigella boydii) was 2.44 µg/mL (≈ 3.06 µM) and the EC50 [16] was 9.4 µg/mL (≈ 11.8 µM). It also gave an MIC (Edwardsiella tarda) of 0.019 µg/mL (≈ 0.0238 µM), an MIC (Klebsiella pneumoniae [17]) of 4.83 µg/mL (≈ 6.06 µM) and an MIC (Enterobacter) of 0.0381 µg/mL (≈ 0.0478 µM). For the same compound, the MIC (Citrobacter freundii) was 1.22 µg/mL (≈ 1.53 µM), the ED50 (Escherichia coli [18]) was 0.62 mg/kg and the MIC (Proteus mirabilis) was 0.019 µg/mL (≈ 0.0238 µM).

— ChEMBL document CHEMBL3045426, “Synthesis, Antiviral and Antibacterial Activities of Isatin Mannich Bases” (Med Chem Res, 2005)
